N#Cc1ccc(C(c2ccc(C#N)cc2)n2cncn2)cc1
solubility (mole fraction)
Conditions | 283.15 K | 288.15 K | 293.15 K | 298.15 K | 303.15 K | 308.15 K | 313.15 K | 318.15 K | 323.15 K
in THF | 0.0164 | 0.0184 | 0.0206 | 0.0229 | 0.0254 | 0.0281 | 0.0309 | 0.034 | 0.0373
in acetone | 0.0147 | 0.0168 | 0.019 | 0.0214 | 0.0241 | 0.027 | 0.0301 | 0.0335 | 0.0371
in acetonitrile | 0.00638 | 0.0077 | 0.00923 | 0.011 | 0.0131 | 0.0154 | 0.018 | 0.021 | 0.0244
in ethanol | 0.000456 | 0.000586 | 0.000748 | 0.000946 | 0.00119 | 0.00148 | 0.00183 | 0.00225 | 0.00275
in ethyl acetate | 0.00527 | 0.00609 | 0.007 | 0.00802 | 0.00914 | 0.0104 | 0.0117 | 0.0132 | 0.0148
in methanol | 0.00108 | 0.00133 | 0.00163 | 0.00198 | 0.00239 | 0.00287 | 0.00342 | 0.00406 | 0.00479
in methyl acetate | 0.0105 | 0.0119 | 0.0135 | 0.0151 | 0.017 | 0.019 | 0.0211 | 0.0234 | 0.0259
in n-propanol | 0.000351 | 0.000461 | 0.0006 | 0.000773 | 0.000989 | 0.00125 | 0.00158 | 0.00197 | 0.00245
